Entries after “also recorded” stand apart in the source; their conditions may differ.
How the values were obtained:
[1] = tested on: cocaine users; test: Safety of l-THP in cocaine users: PD (blood pressure, heart rate); assay type: in vivo, human; settings: for BP (Change from baseline %), first value of the pair / BP (Change from baseline %), second value of the pair / HR (Change from baseline %): n = 3
Description: (§1) Data on safety of l-THP in six subjects of cocaine users was generated (Table 1). The major PD/PK parameters of the drug-drug interaction between l-THP and cocaine in cocaine users were compared between active drug and placebo groups. […] Since l-THP will be 10 fold more than LDN in the combination, the safety of l-THP is the major safety concern in the combination for human drug addicts.

[2] = tested on: cocaine induced reinstatement of CPP; test: Cocaine induced reinstatement of CPP (mouse model of CPP); assay type: in vivo; settings: conditioned with 10 mg/kg cocaine, reinstated with 5 mg/kg cocaine, l-THP 3 mg/kg, naltrexone 0.1 mg/kg, alone or combined
Protocol: Animals were conditioned using 10 mg/kg cocaine for 4 days, and reinstated using 5 mg/kg cocaine. Reinstatement was carried out 48 hours after CPP was extinct. The CPP score is calculated as a change in baseline from the cocaine conditioned chamber. A two way ANOVA followed by Bonferroni post test comparisons was used for analysis of the effect of treatment on cocaine reinstatement.
Fixed dose l-THP/LDN (3 mg/kg/0.1 mg/kg) were tested in mouse model of CPP.

[3] = tested on: locomotor activity; test: Treatment effect on locomotor activity during extinction/treatment; assay type: in vivo, mouse; settings: over the treatment period; l-THP 3 mg/kg, naltrexone 0.1 mg/kg, alone or combined
Protocol: Over the course of extinction/treatment the animal's locomotor activity was recorded. The locomotion scores graphed represent the treatment locomotion with the baseline locomotion score subtracted.

[4] = PK of the drug-drug interaction between l-THP and cocaine in cocaine users; assay type: in vivo, human; settings: cocaine users
Description: as §1

[5] = tested on: cocaine addicted mice; test: Naltrexone induced withdrawal (global withdrawal score); assay type: in vivo; settings: mice treated with 10 mg/kg cocaine over 4 days
Protocol: Animals were treated with 10 mg/kg cocaine over 4 days. On the 5th day animals were injected with different dose of Naltrexone and 3 mg/kg l-THP. After injection animals were monitored for withdrawal behaviors for 20 minutes. Total counts for jumping, teeth chattering, paw tremors and grooming with assigned points were used to calculate the global withdrawal score. A one way ANVOA followed by Bonferroni post test comparisons was used to determine the effect naltrexone dose on withdrawal (***p<0.001 and *p<0.05 respectively) n=5 for each group. Global Scores were calculated.
This effect was attributed to cocaine's up regulation of endogenous opioids and the significant blockade of opioid receptor by naltrexone.

[6] = cocaine users, first column group headed Post cocaine 0 min
[7] = cocaine users, second column group headed Post cocaine 0 min

## COc1cc2c(cc1OC)[C@@H]1Cc3ccc(OC)c(OC)c3CN1CC2 [l-THP, levo-tetrahydropalmatine]
[1]; cocaine users
  peak changes in heart rate (HR) and blood pressure (BP): within acceptable margin
[1]; [6]
  BP (Change from baseline %), first value of the pair: 8 ± 9.3%
  BP (Change from baseline %), second value of the pair: 10 ± 13%
  HR (Change from baseline %): 23.6 ± 27.1%
[1]; [7]
  BP (Change from baseline %), first value of the pair: 5 ± 3%
  BP (Change from baseline %), second value of the pair: 5 ± 2%
  HR (Change from baseline %): 8.5 ± 8.1%
[1]; six subjects of cocaine users, active drug vs placebo
  safety and tolerability in cocaine users: safe and well tolerated
[2]
  effect of treatment on cocaine reinstatement of CPP: significant attenuation
[3]
  effect on locomotor activity (locomotion): significant effect on locomotion during week 3 and week 4; also recorded: reduced locomotor activity significantly
[4]; vs placebo pretreated
  effect of l-THP pretreatment on the Cmax or AUC0-inf of cocaine: does not increase
[4]; human, in vivo, n = 2, mean only, analyte l-THP, read-out: I-THP AUC 0-inf
  AUC(0-inf): 393 ng·h/mL
[4]; human, in vivo, n = 2, mean only, analyte l-THP, read-out: I-THP Cmax
  Cmax: 38 ng/mL

## O=C1CC[C@@]2(O)[C@H]3Cc4ccc(O)c5c4[C@@]2(CCN3CC2CC2)[C@H]1O5 [naltrexone]
[2]
  effect of treatment on cocaine reinstatement of CPP: did not have significant effect
[5]; naltrexone 1 mg/kg, 0.3 mg/kg and 0.1 mg/kg co-administered with l-THP (3 mg/kg)
  withdrawal, lower doses of naltrexone: did not produce withdrawal
[5]; naltrexone 30 mg/kg or 15 mg/kg co-administered with l-THP (3 mg/kg)
  withdrawal symptoms, high dose naltrexone: withdrawal symptoms occurred
[3]
  effect on locomotor activity (locomotion): did not display significant effect

From patent US10016413B2, “Combination dopamine antagonist and opiate receptor antagonist treatment of addictive behavior” (University of Maryland, Baltimore, priority 2012, dated 2018)
